{"source": "paper PMC9162962", "about": "(European Journal of Medicinal Chemistry, 2022)", "target": "SARS-CoV-2 M^pro (Severe acute respiratory syndrome coronavirus 2, UniProt P0DTD1)", "format": "biochemical"}
{"compound": "NC(=S)N/N=C/c1ccc(-c2ccc(C(=O)O)c(O)c2)o1", "note": "[F8–B6, (E)-4-(5-((2-carbamothioylhydrazono)methyl)furan-2-yl)-2-hydroxybenzoic acid]", "values": [{"measurement": "Effect of dithiothreitol (DTT) on inhibition", "value": "reverse the inhibitory effect"}]}
